Test results reported in patent US10906938B2, “Cell epitopes and combination of cell epitopes for use in the immunotherapy of myeloma and other cancers” (Immatics Biotechnologies GmbH, priority 2015, dated 2021).

Experiments:
Type in all cases: cell-based, human
[1] = system: PBMC obtained from MM patients; test: 12-day recall IFNγ ELISPOT with PBMC of MM patients; conditions: for specific T-cell recognition, MM patients positive/tested / specific T-cell recognition, share of MM patients: 12-day recall IFNγ ELISPOT, PBMC of MM patients, HLA class I peptide
Method: PBMC from MM patients and HVs were cultured as described previously. In brief, for CD8^+ T-cell stimulation, PBMC were pulsed with 1 μg/ml per peptide and cultured for 12 days adding IL-4 and IL-7 on day 0 and 1 as well as IL-2 on day 3, 5, 7 and 9. HLA-A*02 (KLFEKVKEV) (SEQ ID NO. 231) and B*07 (KPSEKIQVL) (SEQ ID NO. 232) restricted control peptides derived from benign tissues (HV-exclusive HLA ligands) served as negative control. Peptide-stimulated PBMC were analyzed by ELISPOT assays on day 12. For CD4^+ T-cell stimulation, culture was performed as described for CD8^+ T cells except for 2 modifications: pulsing was carried out with 10 μg/ml of HLA class II peptide and no IL-4 or IL-7 was added.
IFNγ ELISPOT assays were carried out as described previously. In brief, 96-well nitrocellulose plates (Millipore) were coated with […] IFNγ mAb (Mabtech) and incubated over night at 4° C. Plates were blocked with 10% human serum for 2 h at 37° C. 2.5×10^5 cells/well of pre-stimulated PBMC were pulsed with 1 μg/ml (HLA class I) or 2.5 μg/ml (HLA class II) peptide and incubated for 24-26 h. Readout was performed according to manufacturer's instructions. PHA was used as positive control. HLA-A*02 (KLFEKVKEV) (SEQ ID NO. 231) and B*07 (KPSEKIQVL) (SEQ ID NO. 232) restricted control peptides derived from benign tissues (HV-exclusive HLA ligands) served as negative control. Spots were counted using an ImmunoSpot S5 analyzer (CTL). T cell responses were considered to be positive when >10 spots/well were counted and the mean spot count per well was at least 3-fold higher than the mean number of spots in the negative control wells (according to the cancer immunoguiding program (CIP) guidelines).

[2] = system: CD8+ T cells from one healthy individual; test: aAPC priming and tetramer staining, CD8+ T cells of a healthy individual
Method: (§1) For the generation of artificial antigen presenting cells (aAPC), 4×10^6 streptavidincoated polystyrene particles (Bangs Laboratories) per ml were resuspended in PBE (PBS/BSA/ETDA, Gibco/Sigma Aldrich/Lonza) containing 200 pM biotinylated MHCpeptide monomer and 20 nM anti-human biotinylated CD28 antibody and incubated at room temperature for 30 min. After washing, the aAPCs were stored at 4° C. prior to use. CD8^+ T cells from MM patients and HV were enriched by positive selection using magnetic cell sorting (Miltenyi Biotec). Stimulations were initiated in 96-well plates with 1×10^6 T cells plus 2×10^5 aAPCs in 200 μl T-cell medium complemented with 5 ng/ml human IL-12 (PromoKine). […] IL-2 (R&D Systems) were added on day 5. aAPC stimulation was repeated on day 10, for a total of 3 cycles.
(§2) The frequency of peptide-specific CD8^+ T cells was determined on a FACS Canto II cytometer (BD Bioscience) by staining with anti-CD8 (Biolegend) and HLA:peptidetetramer-PE as described previously. Staining with tetramers containing the CMV pp65 A*02 peptide NLVPMVATV (SEQ ID No. 236) served as positive control, tetramers containing irrelevant, non-primed A*02 restricted control peptides as negative controls. […]

[3] = system: CD8+ T cells from one MM patient; test: aAPC priming and tetramer staining, CD8+ T cells of an MM patient; conditions: T cells from an MM patient without previous T-cell reactivity for P2
Method: as §1, §2

MM.1S cells = test: HLA class I ligand presentation upon carfilzomib treatment on MM.1S cells (LC-MS/MS); design: key to modulation upon carfilzomib-treatment 24 #1 / modulation upon carfilzomib-treatment 24 #2 / modulation upon carfilzomib-treatment 24 #3 / modulation upon carfilzomib-treatment 48 #1 / modulation upon carfilzomib-treatment 48 #2 / modulation upon carfilzomib-treatment 48 #3: −1: significantly down-modulated; 0: not signifcant/not detected; 1: significantly up-modulated; conditions: MM.1S cells, vs mock-treated controls; for modulation upon carfilzomib-treatment 24 #1 / modulation upon carfilzomib-treatment 24 #2 / modulation upon carfilzomib-treatment 24 #3: 24 h after carfilzomib treatment (100 nM, 1 h); for modulation upon carfilzomib-treatment 24 #1 / modulation upon carfilzomib-treatment 48 #1: biological replicate #1; for modulation upon carfilzomib-treatment 24 #2 / modulation upon carfilzomib-treatment 48 #2: biological replicate #2; for modulation upon carfilzomib-treatment 24 #3 / modulation upon carfilzomib-treatment 48 #3: biological replicate #3; for modulation upon carfilzomib-treatment 48 #1 / modulation upon carfilzomib-treatment 48 #2 / modulation upon carfilzomib-treatment 48 #3: 48 h after carfilzomib treatment (100 nM, 1 h)
Method: HLA class I and II molecules were isolated using standard immunoaffinity purification as described using the pan-HLA class I specific mAb W6/32, the pan-HLA class II specific mAb T039 and the HLA-DR specific mAB L243 (produced in house).
HLA ligand extracts were analyzed in 5 technical replicates as described previously. In brief, peptide samples were separated by nanoflow HPLC (RSLCnano, ThermoFisher) using a 50 μm×25 cm PepMap RSLC column (Thermo Fisher) and a gradient ranging from 2.4 to 32.0% acetonitrile over the course of 90 min. Eluting peptides were analyzed in an online coupled LTQ Orbitrap XL mass spectrometer (Thermo Fisher) using a top 5 CID (collision induced dissociation) fragmentation method.
Data processing was performed as described previously. In brief, the Mascot search engine (Mascot 2.2.04; Matrix Science, London, UK) was implemented to search the human proteome as comprised in the Swiss-Prot database (20,279 reviewed protein sequences, September 2013) without enzymatic restriction. Potential mutated HLA ligands were searched implementing a database containing the human proteome concatenated with proteins containing single amino acid variants (SAVs) listed in the COSMIC database (http://cancer.sanger.ac.uk/cosmic/). Only recurrent SAVs described in 2 or more samples of hematological origin were included. Oxidized methionine was allowed as a dynamic modification. The false discovery rate was estimated using the Percolator algorithm and set to 5%. Peptide lengths were limited to 8-12 amino acids for HLA class I and 12-25 amino acids for HLA class II. Protein inference was disabled, allowing for multiple protein annotations of peptides. HLA annotation was performed using SYFPEITHI [46] or an extended in-house database. Experimental validation of peptide identifications and HLA annotations was performed by mass spectrometric and functional characterization of synthetic peptides for a subset of peptides.
The inventors quantitatively assessed HLA class I ligand presentation during proteasome inhibitor therapy. Observed was a considerable plasticity of the HLA class I ligandome after treatment with carfilzomib with 17.9±1.1% of MM.1S ligands and 11.2±0.7% of U266 ligands (mean of three biological replicates ±s.d.) showing significant modulation (fold-change ≥4, Po0.01 after Benjamini-Hochberg correction) at t24 h compared with mock-treated controls. Briefly, Cultured MCLs (MM.1S and U266) and primary myeloma samples were incubated with carfilzomib (100 nM, Kyprolis®, available, e.g., from Onyx Pharmaceuticals, Inc.) as an example for a proteasome inhibitor for a 1-h period, followed by three washes in PBS (Gibco) and recultured for additional 24 or 48 h. Controls were incubated with vehicle control (glucose 5%) for 1 h, followed by identical washing and incubation for 24 or 48 h. Experiments were conducted in three biological replicates where indicated.

U266 cells = test: HLA class I ligand presentation upon carfilzomib treatment on U266 cells (LC-MS/MS); design: key to modulation upon carfilzomib-treatment 24 #1 / modulation upon carfilzomib-treatment 24 #2 / modulation upon carfilzomib-treatment 24 #3 / modulation upon carfilzomib-treatment 48 #1 / modulation upon carfilzomib-treatment 48 #2 / modulation upon carfilzomib-treatment 48 #3: −1: significantly down-modulated; 0: not signifcant/not detected; 1: significantly up-modulated; conditions: U266 cells, vs mock-treated controls; for modulation upon carfilzomib-treatment 24 #1 / modulation upon carfilzomib-treatment 24 #2 / modulation upon carfilzomib-treatment 24 #3: 24 h after carfilzomib treatment (100 nM, 1 h); for modulation upon carfilzomib-treatment 24 #1 / modulation upon carfilzomib-treatment 48 #1: biological replicate #1; for modulation upon carfilzomib-treatment 24 #2 / modulation upon carfilzomib-treatment 48 #2: biological replicate #2; for modulation upon carfilzomib-treatment 24 #3 / modulation upon carfilzomib-treatment 48 #3: biological replicate #3; for modulation upon carfilzomib-treatment 48 #1 / modulation upon carfilzomib-treatment 48 #2 / modulation upon carfilzomib-treatment 48 #3: 48 h after carfilzomib treatment (100 nM, 1 h)
Summary of the method: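 MM.1S and U266 myeloma cells were pulsed with 100 nM carfilzomib for 1 h, washed and recultured 24 or 48 h; controls got 5% glucose vehicle. HLA class I ligands were immunopurified with W6/32 and analysed by nanoLC-MS/MS (CID, 5 technical replicates, 5% FDR, 8-12-mers). Modulation versus mock was scored as fold-change ≥4 with Benjamini-Hochberg-corrected significance.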

Sequence	specific T-cell recognition, MM patients positive/tested [1]	specific T-cell recognition, share of MM patients [1]	memory T-cell responses, MM patients positive/tested ([1]; IFNγ ELISPOT, HLA class II peptide, MM patients)	P2-tetramer positive CD8+ T cells after in vitro priming ([2]; HV-derived CD8+ T cells, 3 cycles of aAPC priming)	tetramer-positive T-cell populations ex vivo ([2]; ex vivo, without priming)	P2-tetramer positive CD8+ T cells after priming [3]	modulation upon carfilzomib-treatment 24 #1 (MM.1S cells)	modulation upon carfilzomib-treatment 24 #2 (MM.1S cells)	modulation upon carfilzomib-treatment 24 #3 (MM.1S cells)	modulation upon carfilzomib-treatment 48 #1 (MM.1S cells)	modulation upon carfilzomib-treatment 48 #2 (MM.1S cells)	modulation upon carfilzomib-treatment 48 #3 (MM.1S cells)	modulation upon carfilzomib-treatment 24 #1 (U266 cells)	modulation upon carfilzomib-treatment 24 #2 (U266 cells)	modulation upon carfilzomib-treatment 24 #3 (U266 cells)	modulation upon carfilzomib-treatment 48 #1 (U266 cells)	modulation upon carfilzomib-treatment 48 #2 (U266 cells)	modulation upon carfilzomib-treatment 48 #3 (U266 cells)
KAMEAASSL (listed as Homo sapiens) [SEQ ID NO: 82]	2/16	13%	–	–	–	–	–	–	–	–	–	–	–	–	–	–	–	–
NSVIIVDKNGRLV (listed as Homo sapiens) [SEQ ID NO: 237]	–	–	2/5	–	–	–	–	–	–	–	–	–	–	–	–	–	–	–
SLLEQGLVEA (listed as Homo sapiens) [SEQ ID NO: 177]	1/8	13%	–	0.403%	≤ 0.1%	0.236%	–	–	–	–	–	–	–	–	–	–	–	–
TPAVGRLEV	–	–	–	–	–	–	0	0	0	0	0	0	0	0	0	0	0	0
TPSSRPASL	–	–	–	–	–	–	1	1	0	0	0	0	0	0	0	0	0	0
